According to patent US10513512B2, “Flavanone derivatives, and preparation method and use thereof” (Xuanwu Hospital of Capital Medical University, priority 2016, dated 2019):

Key:
[1] = target: dopamine D2 receptor (DRD2) (Homo sapiens (Human), UniProt P14416); assay: Dopamine D2 receptor antagonism, Fluo-4 calcium fluorescence in HEK293 cells stably expressing DRD2/Gα16; assay type: cell-based; conditions: 50 nM Dopamine as agonist, read-out: IC50 for inhibiting dopamine D2 receptor
From the text: Objective: positive symptoms (hallucination, delusion, etc.) in patients with schizophrenia may be associated with dopamine (DA) hyperfunction in subcortical limbic system, and antipsychotic drugs, which block Dopamine D2 Receptor (DRD2), can effectively control positive symptoms of schizophrenia. By establishing a cell line co-transfected with DRD2 and Gα16, the activated DRD2 can activate Gα16 protein, thereby activating phospholipase C (PLC) to produce inositol 1,4,5-triphosphate (IP3) and diacylglycerol (DAG), wherein IP3 can bind to the IP3 receptor on endoplasmic reticulum and mitochondria, resulting in intracellular calcium release. Therefore, the determination of a change in intracellular calcium can be used as a method for detecting the activated state of DRD2.
Fluo-4/AM was a calcium fluorescent probe indicator for determining calcium ions. In this experiment, a Fluo-4 fluorescence method was used to determine the level of activated Gα protein by measuring the fluorescence intensity excited by intracellular calcium ions. If a compound could activate DRD2, the calcium influx was enhanced; on the contrary, if a compound could antagonize DRD2, the calcium influx was reduced.
Methods: HEK293 cells stably expressing DRD2/Gα16 (a human embryonic kidney cell line, derived from Shanghai Institute of Materia Medica, Chinese Academy of Sciences) were seeded in a 96-well plate (the culture solution was 90% DMEM+10% fetal bovine serum), and incubated overnight. The culture solution was pipetted off, and a freshly prepared dye Fluo-4/AM was added. The cells were incubated in a 37° C. incubator for 40 min. The dye was completely pipetted off. After the cells were washed with a freshly prepared calcium buffer, a calcium buffer (50 μl) dissolved with a test drug was added. FlexStation II instrument was used in the determination. A calcium buffer (25 μl) dissolved with a known agonist was added automatically by the instrument at the fifteenth second, and the fluorescence value at 525 nm (an excitation wavelength of 485 nm) was finally read. […] IC50 value was calculated by GraphPad Prism.

[2] = tested on: MK-801-induced hyperlocomotion schizophrenia model in mice; assay: MK-801-induced hyperlocomotion schizophrenia model in mice (open-field test); assay type: in vivo, mouse; conditions: within 210 min; for Distance of central district activity / Total distance traveled: 50 mg/kg intragastric, Balb/c mice, MK-801 0.6 mg/kg i.p., Mean ± SE, n = 10; for distance of center square activity, effect in words / total distance of spontaneous activity, effect in words: intragastrical administration, MK-801 model mice
From the text: Objective: Glutamatergic hypofunction is one of the pathogenesis for mental disorders such as schizophrenia. N-methyl-D-aspartic acid (NMDA) receptor antagonists can induce schizophrenia-like effects. In this experiment, a hyperlocomotion schizophrenia model in mice induced by dizocilpine (MK-801), a NMDA receptor antagonist, was used to investigate the in vivo activity of the compounds P6, P5, P4 and P7 of the invention.
Methods: SPF grade inbred Balb/c male mice with no special pathogens (purchased from Laboratory Animal Center of Capital Medical University), weighed (20±2) g, were randomly divided into a control group, a model group, and drug groups. The mice were adapted to the rearing environment for one week, and then were intragastrically administered for 3 days, wherein the control group and model group were intragastrically administered with physiological saline, and on Day 4, the mice were administered prior to test, and then were tested for 60 min in an Open-Field Activity Monitoring System. The control group was then intraperitoneally injected with physiological saline, the model group and the drug groups were intraperitoneally injected with a solution (0.6 mg/kg) of a NMDA receptor antagonist dizocilpine (MK-801), and the mice of these groups were further monitored for spontaneous activity and center square activity within 210 minutes, wherein spontaneous activity was used to reflect the positive symptom of rapid motion in schizophrenia, and center square activity was used to evaluate the anxiety status of schizophrenia.

Cuprizone model mice = assay: Ethological change in Cuprizone model mice (Y-maze and open-field behavior test); assay type: in vivo, mouse; conditions: intragastrical administration; for number of arm entries in Y-maze, effect in words / spontaneous alternation in Y-maze, effect in words: within 8 min; for number of arm entries in Y-maze, effect in words: FIG. 6; for spontaneous alternation in Y-maze, effect in words: FIG. 7; for total distance of spontaneous activity in open-field test, effect in words: within 10 min, FIG. 8
From the text: Objective: neuroinflammation, pathological changes in white matter, and demyelination are the important pathogenesis for many central nervous system diseases. Cuprizone (dicyclohexanoneoxaly dihydrazone) can cause changes such as inflammation, demyelination, axonal injury, and cognitive function impairment. In this experiment, Y-maze and open-field behavior test were used to study the effects of the compounds of the invention on memory function and motion in a Cuprizone mouse model.
Methods: SPF grade inbred C57BL/6 male mice, weighed (20±2) g, were randomly divided into a control group, a model group, and drug groups. The mice were adapted to the rearing environment for 3 days. Then, the control group was fed with a normal feed, and the other groups were fed with a feed containing 0.2% Cuprizone for model establishment. During model establishment, the mice in each group were intragastrically administered with a corresponding dose of drug, and were reared for 5 weeks. The mice were then subjected to the Y-maze and open field behavior test, wherein the number of arm entries in Y-maze was used to reflect the motion of mice; the spontaneous alternation in Y maze was used to reflect the working memory of mice; and the spontaneous activity in open-field behavior test was used to reflect the motion of mice.

[3] = tested on: myelin basic protein (MBP) in the frontal cortex of Cuprizone model mice; assay: Demyelination in Cuprizone mouse model: MBP content by Western blot; assay type: in vivo; conditions: 25 and 50 mg/kg groups, FIG. 9
From the text: Objectiv: pathological changes in white matter and demyelination are the important pathogenesis for many central nervous system diseases and mental disorders. Cuprizone can cause demyelination and pathological changes in white matter. Myelin basic protein (MBP) is a marker protein for myelination of axons, and is the main component of myelin sheath. In this experiment, Western Blot method was used to study the effects of the compounds of the invention on the MBP content and demyelination in the brain of Cuprizone model mice. Methods: Cuprizone mouse model establishment and administration method were the same as those described in Experimental example 4. After ethological tests were performed, the mice were anaesthetized by intraperitoneal injection of 10% chloral hydrate. The brains were harvested and stored at −80° C. Western blot assay: brain tissue was lysed with lysate to extract protein, and the protein concentration was determined. SDS-PAGE gel electrophoresis was performed, the protein was transferred onto a membrane, and the membrane was blocked. The protein was incubated with an anti-MBP antibody (a primary antibody) overnight at 4° C. in a refrigerator. […] Signal intensity for each protein band was analyzed using FluorChem 8900 gray-scale analysis software.

[4] = tested on: Iba-1-labeled microglial cells in the brain of Cuprizone model mice; assay: Microglial cell activation in Cuprizone mouse model: Iba-1 immunohistochemical staining; assay type: in vivo; conditions: 25, 50 mg/kg, FIG. 10
From the text: Objective: microglial activation and neuroinflammation are the important pathogenesis for many central nervous system diseases. Iba-1 could specifically label microglial cells. In this experiment, immunohistochemical method was used to study the effects of the compounds of the invention on Iba-1-labeled microglial cells in the brain of Cuprizone model mice.
Methods: Cuprizone mouse model establishment and administration method were the same as those described in Experimental example 4. After ethological tests were performed, the mice were anaesthetized by intraperitoneal injection of 10% chloral hydrate. After perfusion, brain tissue was taken and fixed with […] paraformaldehyde, and then frozen and sliced. Immunohistochemical staining: the frozen sections were inactivated with 3% H2O2 for 10 min and rinsed with PBS; the tissues were blocked with 10% serum and incubated at 37° C. for 1 h. Serum was washed off and a primary antibody (an anti-Iba-1 antibody) was added dropwise. The resultant mixture was kept at 4° C. overnight. After rinsing with PBST, a biotin-conjugated goat anti-rabbit IgG antibody (a secondary antibody) was added dropwise, and incubated at 37° C. for 2 hrs. After rinsing with PBST, a horseradish peroxidase-conjugated streptavidin (a third antibody) was added dropwise, and incubated at 37° C. for 2 hrs. […] Iba-1 positive cells were observed under microscope, and counted.

dopamine D2 receptor (DRD2), sequence (P14416 whole entry): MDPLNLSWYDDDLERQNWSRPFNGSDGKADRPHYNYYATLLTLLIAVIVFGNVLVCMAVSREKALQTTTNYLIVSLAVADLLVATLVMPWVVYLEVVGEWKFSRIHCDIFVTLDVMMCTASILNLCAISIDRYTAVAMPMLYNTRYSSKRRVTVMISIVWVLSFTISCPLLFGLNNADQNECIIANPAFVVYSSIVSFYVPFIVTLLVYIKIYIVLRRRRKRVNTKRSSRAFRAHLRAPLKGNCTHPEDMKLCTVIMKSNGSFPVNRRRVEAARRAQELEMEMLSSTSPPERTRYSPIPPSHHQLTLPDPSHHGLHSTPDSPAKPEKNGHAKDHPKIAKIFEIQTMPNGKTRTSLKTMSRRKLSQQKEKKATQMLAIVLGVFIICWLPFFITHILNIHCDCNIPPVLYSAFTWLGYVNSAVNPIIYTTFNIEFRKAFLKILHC

| Structure (SMILES) | IC50 [1] [nM] | Distance of central district activity [2] [cm] | Total distance traveled [2] [cm] | distance of center square activity, effect in words [2] | total distance of spontaneous activity, effect in words [2] | number of arm entries in Y-maze, effect in words (Cuprizone model mice) | spontaneous alternation in Y-maze, effect in words (Cuprizone model mice) | total distance of spontaneous activity in open-field test, effect in words (Cuprizone model mice) | MBP content in frontal cortex, effect in words [3] | number of Iba-1-labeled microglial cells in the brain, effect in words [4] |
| --- | --- | --- | --- | --- | --- | --- | --- | --- | --- | --- |
| COc1ccc(C2CC(=O)c3c(O)cc(OCCCCN4CCC(c5noc6cc(F)ccc56)CC4)cc3O2)cc1 (stereo not drawn) [Compound P5, 5-hydroxy-2-(4-methoxyphenyl)-7-(4-(4-(6-fluoro-benzo[d]isoxazol-3-yl)-piperidin-1-yl)-butoxy)-chroman-4-one] | 51.3 | 9211 ± 1845 | 30914 ± 3351 | could shorten the total distance of spontaneous activity and the distance of center square activity | could shorten the total distance of spontaneous activity | could reduce the number of arm entries | enhance the spontaneous alternation | could shorten the total distance of spontaneous activity | could significantly enhance the MBP content |  |
| COc1ccc(C2CC(=O)c3c(O)cc(OCCCN4CCN(c5ccccc5OC)CC4)cc3O2)cc1 (stereo not drawn) [Compound P6, 5-hydroxy-2-(4-methoxyphenyl)-7-(4-(4-(2-methoxyphenyl)-piperazin-1-yl)-propoxy)-chroman-4-one] | 220 | 10181 ± 2110 | 46922 ± 2233 | could shorten the total distance of spontaneous activity and the distance of center square activity | could shorten the total distance of spontaneous activity | could reduce the number of arm entries | enhance the spontaneous alternation | could shorten the total distance of spontaneous activity |  | could significantly reduce the number of microglial cells |
| COc1ccc(C2CC(=O)c3c(O)cc(OCCCCN4CCN(c5ccccc5OC)CC4)cc3O2)cc1 (stereo not drawn) [Compound P1, 5-hydroxy-2-(4-methoxyphenyl)-7-(4-(4-(2-methoxyphenyl)-piperazin-1-yl)-butoxy)-chroman-4-one] | 205 |  |  |  |  |  |  |  |  |  |
| O=C1CC(c2ccc(F)cc2)Oc2cc(OCCCCN3CCC(c4noc5cc(F)ccc45)CC3)cc(O)c21 (stereo not drawn) [Compound P4, 5-hydroxy-2-(4-fluorophenyl)-7-(4-(4-(6-fluoro-benzo[d]isoxazol-3-yl)-piperidin-1-yI)-butoxy)-chroman-4-one] | 87.7 | 11098 ± 1422 | 39222 ± 4300 |  |  |  |  |  | could significantly enhance the MBP content |  |
| COc1ccccc1N1CCN(CCCCOc2cc(O)c3c(c2)OC(c2ccc(F)cc2)CC3=O)CC1 (stereo not drawn) [Compound P3, 5-hydroxy-2-(4-fluorophenyl)-7-(4-(4-(2-methoxyphenyl)-piperazin-1-yl)-butoxy)-chroman-4-one] | 57.3 |  |  |  |  |  |  |  |  |  |
| COc1ccc(C2CC(=O)c3c(O)cc(OCCCN4CCC(c5noc6cc(F)ccc56)CC4)cc3O2)cc1 (stereo not drawn) [Compound P7, 5-hydroxy-2-(4-methoxyphenyl)-7-(4-(4-(6-fluoro-benzo[d]isoxazol-3-yl)-piperidin-1-yl)-propoxy)-chroman-4-one] | 116 | 7913 ± 1666 | 37051 ± 4308 | could shorten the total distance of spontaneous activity and the distance of center square activity | could shorten the total distance of spontaneous activity |  |  |  |  |  |
| COc1ccccc1N1CCN(CCCCOc2cc(O)c3c(c2)OC(c2ccc(C)cc2)CC3=O)CC1 (stereo not drawn) [Compound P2, 5-hydroxy-2-(4-methylphenyl)-7-(4-(4-(2-methoxyphenyl)-piperazin-1-yl)-butoxy)-chroman-4-one] | 346 |  |  |  |  |  |  |  |  |  |
